# Measurements as given in patent publication US20050096360A1, “Inhibitors of semicarbazide-sensitive amine oxidase (SSAO) and VAP-1 mediated adhesion useful for treatment of diseases” (priority 2003, published 2005).
# Like-named read-outs stand apart in the source and are kept apart here.
# Experiments:
# [1] = system: EAE in C57BL/6 mice; assay: Experimental autoimmune encephalomyelitis (EAE), MOG 35-55; assay type: in vivo
# Procedure: SSAO/VAP-1 is expressed on the endothelium of inflamed tissues/organs including brain and spinal cord. Its ability to support lymphocyte transendothelial migration may be an important systemic function of SSAO/VAP-1 in inflammatory diseases such as multiple sclerosis and Alzheimer's disease. An analysis of the use of SSAO inhibitors to treat inflammatory disease of the central nervous system (CNS) was performed through the use of an experimental autoimmune encephalomyelitis model (EAE) in C57BL/6 mice. EAE in rodents is a well-characterized and reproducible animal model of multiple sclerosis in human (Benson J. M. et al. (2000) J. Clin. Invest. 106:1031). Multiple sclerosis is a chronic immune-mediated disease of the CNS characterized by pachy perivenular inflammatory infiltrates in areas of demyelination and axonal loss. As an animal model, EAE can be induced in mice by immunization with encephalitogenic myelin antigens in the presence of adjuvant. The pathogenesis of EAE comprises presentation of myelin antigens to T cells, migration of activated T cells to the CNS, and development of inflammation and/or demyelination upon recognition of the same antigens.
# Thirty female C57BL/6 mice were immunized subcutaneously (s.c). with myelin oligodendrocyte glycoprotein 35-55 (MOG peptide 35-55) in Complete Freund Adjuvant (CFA) on day 0, followed by i.p. injections of pertussis toxin (one pertussis toxin injection on day 0, a second pertussis toxin injection on day 2). Groups of 10 mice received either the allylamine compound mofegiline (AA, 10 mg/kg/dose, twice daily for 18 consecutive days), methotrexate (2.5 mg/kg/day, every other day (Mon., Weds., Fri.) till day 18) or vehicle control (twice/day for 18 consecutive days) all-starting from one day after the immunization and all administered i.p. Then animals were monitored for body weight, signs of paralysis and death according to a 0-5 scale of scoring system as follows: 1=limp tail or waddling gait with tail tonicity; 2=waddling gait with limp tail (ataxia); 2.5=ataxia with partial limb paralysis; 3=full paralysis of one limb; 3.5=full paralysis of one limb with partial paralysis of second limb; 4=full paralysis of two limbs; 4.5=moribund; 5=death. Results are shown in FIG. 2A, FIG. 2B, and FIG. 2C. […] (p=0.04 by repeated measure analysis to assess the treatment effect. Proper polynomial transformation, with the spacing corresponding to the collection days, was applied to test the time effect). Statistically significant differences in diseases severity between the AA and vehicle-treated groups, continued even after stopping compound administration and were observed until the end of the study (d25) .
# [2] = system: C57B1/6 female mice; assay: Acute toxicity studies in mice; assay type: in vivo
# Procedure: (§1) Intraperitoneal (i.p.) and intravenous (i.v.) LD50 values for the compounds of Examples 8 and 10, as well as mofegiline, the allylamine compound described in Example 18, were determined in mice. Six-week old C57B1/6 female mice were divided in groups of five and administered a single i.p or i.v. injection of compound dissolved in PBS (10-100 mg/kg in 100 ul i.v.; 30-500 mg/kg in 200 ul i.p.). Control groups were administered the same volume of PBS i.p. or i.v. Appearance and overt behavior were noted daily, and body weight was measured before compound administration (Day 1) and on Days, 3, 5 and 7. After seven days, animals were euthanized and their liver, spleen and kidneys weighted.
# (§2) Acute toxicity effects for mofegiline included tremors (40 mg/kg i.v.; 100 mg/kg i.p.) and clonic convulsions and labored breathing (100 mg/kg i.v.; 200 mg/kg i.p.). […] All deaths occurred within 24 hours after drug administration. […] Thus, there is no indication of the cause of death for any of the compounds tested.
# [3] = Acute toxicity studies in mice; assay type: in vivo; conditions: female, C57B1/6, mouse, in vivo, Day 7 values
# Procedure: as §1, §2
# [4] = system: adhesion of human PBMCs to rat HEC transfected with full-length human SSAO/VAP-1; assay: In vitro adhesion of PBMCs to SSAO/VAP-1-transfected high endothelial cells; assay type: cell-based; conditions: inhibitors at IC100 concentrations, antibody 10 μg/ml; 3 hr at 37° C.
# Procedure: The studies in this Example were carried out in order to determine whether SSAO/VAP-1 transfected into endothelial cells retained the adhesion function and whether it played any role in the adhesion of freshly isolated human PBMCs to these cells. Moreover, the studies were also designed to determine whether blocking of SSAO/VAP-1 would have an impact on the level of adhesion between these two cell types. Adhesion assays were performed using cells labeled with the fluorescent dye Calcein-AM (Molecular Probes, OR, USA) as per the manufacturer's instructions. Briefly, rat lymph node high endothelial cells (HEC; isolation and culture was described in Ager, A. (1987) J. Cell Sci. 87: 133) were plated overnight in 96-well plates (2,000 cells/well). PBMCs (peripheral blood mononuclear cells) (1×10^7) were labeled with 1 ml of 10 μM Calcein-AM for 1 hr at 37° C., washed three times with RPMI, and added to the 96 well plates containing monolayers of HEC cells mock-transfected or transfected with full-length human SSAO/VAP-1 (60,000 PBMCs were plated per well containing 2,000 HEC cells). Adhesion was carried out for 3 hr at 37° C. Non-adherent cells were removed by washing three times with RPMI and fluorescence was measured in a fluorescence plate reader at an excitation wavelength of 485 nm and emission wavelength of 530 nm. Several controls were included, such as HEC cells and PBMCs (labeled and unlabeled) alone.
# (§3) These studies were repeated using the adhesion assay as described above to evaluate the inhibitors of the invention. Adhesion blockers used included an anti-human VAP-1 monoclonal antibody (Serotec, Oxford, UK), neuramidase (a sialidase, because SSAO/VAP-1 is a sialoglycoprotein; Sigma), and several function-blocking antibodies to rat adhesion molecules (CD31-PECAM, CD54-ICAM-1, […]-P Selectin). […] Antibodies (10 μg/ml) and neuramidase (5 mU) were incubated with the HECs for 30 min at 37° C.; excess antibody was washed away prior to the addition of the labeled PBMCs. Small-molecule inhibitors were pre-incubated the same way at IC100 concentrations, but the amounts present in the supernatant were not washed away to preserve the IC100 concentration during the adhesion step.
# [5] = system: SSAO; assay: IC100 concentrations of SSAO inhibitors used in the adhesion assay; assay type: biochemical; conditions: FIG. 7 legend
# Description: FIG. 7 depicts the effect of blockage of SSAO/VAP-1 on binding between peripheral blood mononuclear cells (PBMCs) and high endothelial cells (HEC). FIG. 7A is a control experiment showing the effect of various compounds used for treatment on the adhesion of PBMCs to mock-transfected high endothelial cells; a non-treated control is included for comparison (MNT). FIG. 7B is a control experiment showing the effect of various compounds used for treatment on the adhesion of PBMCs to high endothelial cells transfected with VAP-1; a non-treated control is included for comparison (VNT).
# as §3
smiles,measurement,setting,value
"NC/C(=C/F)CCc1ccc(F)cc1 [Mofegiline, mofegiline, reference compound]",disease severity (clinical score),"[1]; 10 mg/kg/dose i.p. twice daily for 18 days, p=0.04 vs vehicle",statistically significant reduction
same,disease incidence (mice affected),"[1]; 10 mg/kg/dose i.p. twice daily, dosing period up to day 18, vehicle 80%",50%
same,body weight loss,"[1]; 10 mg/kg/dose i.p. twice daily, dosing period, p=0.04",prevented
same,dose causing tremors,[2]; i.p.,100 mg/kg
same,dose causing convulsions and labored breathing,[2]; i.p. (see Table 2),200 mg/kg
same,dose causing clonic convulsions and labored breathing,[2]; i.v.,100 mg/kg
same,dose causing tremors,[2]; i.v.,40 mg/kg
same,LD50 at 7 days,"[3]; ip, single i.p. injection, read-out: LD50 intraperitoneal",200 mg/kg
same,LD50 at 7 days,"[3]; iv, single i.v. injection, read-out: LD50 intravenous",70 mg/kg
"C#CCN(C)Cc1ccccc1 [Pargyline, pargyline]",number of PBMCs adherent to SSAO/VAP-1 transfected HECs,[4],no effect
"C#CCN(C)CCCOc1ccc(Cl)cc1Cl [Clorgyline, clorgyline]",number of PBMCs adherent to SSAO/VAP-1 transfected HECs,[4],no effect
"NNC(N)=O [Semicarbazide, semicarbazide]",IC100 (SSAO),[5],500 µM
